Legend:
(Ec)FtsY-NG = target: T1, (Ec)FtsY-NG (Escherichia coli, UniProt P10121); assay: Isothermal titration calorimetry (ITC) of nucleotide binding; parameters: species or system E. coli; settings: NG domain, 25 °C, one set of sites model
T1 construct: purified NG domains of (Ec)Ffh, (Ec)FtsY and (Bs)Ffh; His6 (C); made in house; host or cells: E. coli BL21 (DE3)
Procedure: (§1) Ligands and proteins (purified NG domains of (Ec)Ffh, (Ec)FtsY and (Bs)Ffh) were diluted with a buffer containing 20 mM HEPES-Na (pH 7.5), 200 mM NaCl, 20 mM MgCl2 and 20 mM KCl. The NG domains of (Ec)Ffh, (Ec)FtsY and (Bs)Ffh were titrated in the sample-cell at a nominal concentration of 25 µM each. The nucleotides GDP, GTP, ppGpp and pppGpp (Jena Bioscience, Germany) were placed in the syringe and their concentrations were predetermined by absorbance at 252 nm to saturate the protein samples during the titrations. All the measurements were performed at 25 °C with the instrument MicroCal PEAQ-ITC (©Malvern Panalytical) with a method consisting of 13 injections (first 0.4 µL, and the rest 3 µL each) and 150 s of spacing. The raw data (see source) were processed with the MicroCal PEAQ-ITC Analysis Software (©Malvern Panalytical) using the “one set of sites” models.

(Bs)Ffh-NG = target: T2, (Bs)Ffh-NG (Bacillus subtilis, UniProt P37105); assay: as above; parameters: species or system B. subtilis; settings: NG domain, 25 °C, one set of sites model
T2 construct: purified NG domains of (Ec)Ffh, (Ec)FtsY and (Bs)Ffh; His6 (N); made in house; host or cells: E. coli Rosetta pLysS
T2 sequence (P37105 1-297 limits assumed): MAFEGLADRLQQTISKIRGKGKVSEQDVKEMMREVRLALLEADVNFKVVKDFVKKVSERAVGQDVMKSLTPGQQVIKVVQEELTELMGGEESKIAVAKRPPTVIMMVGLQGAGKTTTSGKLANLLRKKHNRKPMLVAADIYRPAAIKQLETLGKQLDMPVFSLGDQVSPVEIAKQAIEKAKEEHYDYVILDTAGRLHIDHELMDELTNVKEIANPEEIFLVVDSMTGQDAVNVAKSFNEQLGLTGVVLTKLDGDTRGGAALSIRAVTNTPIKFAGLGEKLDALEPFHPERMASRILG
Procedure: as §1

SRP/FtsY = target: T3, SRP/FtsY (Escherichia coli, UniProt P0AGD7+P10121); assay: Floatation analysis of co-translational membrane targeting of RNCs to SecYEG-proteoliposomes; format: biochemical, E. coli; settings: 50 µM final concentration, 10 µM GTP
T3 construct: (Ec)Ffh (full-length) was concentrated on a 10 kDa centrifugal filter; (Ec)FtsY (full-length) was re-buffered in HT buffer; His-tag; made in house; host or cells: E. coli
T3 sequence (P0AGD7 whole entry): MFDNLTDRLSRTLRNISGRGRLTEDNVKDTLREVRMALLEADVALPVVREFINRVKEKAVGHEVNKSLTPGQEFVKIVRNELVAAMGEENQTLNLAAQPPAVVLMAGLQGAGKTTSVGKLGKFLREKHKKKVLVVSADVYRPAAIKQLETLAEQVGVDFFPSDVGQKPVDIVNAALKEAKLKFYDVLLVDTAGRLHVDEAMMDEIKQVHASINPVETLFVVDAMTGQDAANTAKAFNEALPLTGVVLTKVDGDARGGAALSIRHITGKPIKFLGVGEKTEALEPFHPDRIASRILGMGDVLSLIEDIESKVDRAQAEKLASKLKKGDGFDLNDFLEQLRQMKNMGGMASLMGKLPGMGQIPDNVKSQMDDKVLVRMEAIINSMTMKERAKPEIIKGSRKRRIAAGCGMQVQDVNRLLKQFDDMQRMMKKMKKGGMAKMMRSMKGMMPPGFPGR
T3 sequence (P10121 whole entry): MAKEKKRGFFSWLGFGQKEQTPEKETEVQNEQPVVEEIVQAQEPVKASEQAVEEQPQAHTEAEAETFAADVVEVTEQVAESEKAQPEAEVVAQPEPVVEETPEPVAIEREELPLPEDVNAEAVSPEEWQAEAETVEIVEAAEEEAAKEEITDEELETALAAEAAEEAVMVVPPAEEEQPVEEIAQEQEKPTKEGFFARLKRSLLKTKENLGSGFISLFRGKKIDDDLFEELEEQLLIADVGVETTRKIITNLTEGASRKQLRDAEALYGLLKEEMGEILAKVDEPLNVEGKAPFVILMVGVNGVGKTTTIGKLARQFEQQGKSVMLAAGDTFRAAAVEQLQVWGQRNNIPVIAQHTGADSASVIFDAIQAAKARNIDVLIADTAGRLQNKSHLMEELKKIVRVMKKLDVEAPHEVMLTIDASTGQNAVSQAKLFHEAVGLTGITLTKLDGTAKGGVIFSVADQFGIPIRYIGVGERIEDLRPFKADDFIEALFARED
Procedure: For in vitro synthesizing FtsQ- and LepB-RNCs, the T7-dependent expression vectors pKSM-FtsQ and pKSM-LepB were used[37],[79]. In brief, the first 102 amino acids of LepB, and the first 120 amino acids of FtsQ were fused to the SecM stalling sequence and cloned into the pET19b vector. In vitro synthesis was performed in a coupled transcription/translation system as described for YohP. After in vitro synthesis, the RNCs were incubated with INVs (1 µL), liposomes (2 µL), or SecYEG-proteoliposomes (2 µL; 100 ng SecYEG µL^−1) in floatation buffer (50 mM triethanolamine acetate, pH 8.0; 10 µM GTP, 10 mM magnesium acetate, 70 mM potassium acetate; 250 mM sucrose and 1 mM DTT) for 15 min at 25 °C. When indicated, SRP/FtsY (20 ng µL^−1 each) and ppGpp or pppGpp (50 µM final concentration) was present during incubation. Membrane binding of RNCs was assayed by floatation analyses. The reaction mixture was adjusted to 1.6 M sucrose (final volume 100 µL) and overlaid with 200 µL of 1.25 M sucrose and 100 µL 0.25 M sucrose, each prepared in floatation buffer. Following centrifugation in a TLA 100.2 rotor (Beckmann-Coulter) at […] for 90 min, the upper 200 µL of the gradient, containing the membrane fraction (MF) were withdrawn and precipitated with 10% (w/v) TCA (final concentration). The pelleted (non-bound soluble fraction, SF) RNCs were resuspended in the remaining 200 µL of the gradient and TCA precipitated. Samples were subsequently analyzed by 15% SDS-PAGE and autoradiography. RNC binding to membranes was quantified by using the ImageQuant (GE Healthcare, München, Germany) software. The experiments were performed at least three times as independent experiments and representative images are shown. Mean values and SEM values were determined by using either Excel (Microsoft Corp.) or GraphPad Prism (GraphPad Prism Corp. San Diego).

T1 sequence (P10121 197-497): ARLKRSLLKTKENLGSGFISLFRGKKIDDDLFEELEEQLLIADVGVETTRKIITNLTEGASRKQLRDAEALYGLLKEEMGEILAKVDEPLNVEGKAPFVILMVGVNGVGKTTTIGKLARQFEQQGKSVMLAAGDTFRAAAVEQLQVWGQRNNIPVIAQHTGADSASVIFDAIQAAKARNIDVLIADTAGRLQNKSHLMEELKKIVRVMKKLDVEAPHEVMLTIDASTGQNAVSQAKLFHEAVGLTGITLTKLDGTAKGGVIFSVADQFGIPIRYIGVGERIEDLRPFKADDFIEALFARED

SMILES: Nc1nc2c(ncn2[C@@H]2O[C@H](COP(=O)(O)OP(=O)(O)O)[C@@H](OP(=O)(O)OP(=O)(O)O)[C@H]2O)c(=O)[nH]1 [ppGpp]
- Kd ((Ec)FtsY-NG): 21.7 ± 5.4 µM
- Kd ((Bs)Ffh-NG): 4.8 ± 1.8 µM
- membrane targeting of FtsQ-RNCs (SRP/FtsY): completely blocked
- membrane targeting of LepB-RNCs (SRP/FtsY): completely blocked

SMILES: Nc1nc2c(ncn2[C@@H]2O[C@H](COP(=O)(O)OP(=O)(O)OP(=O)(O)O)[C@@H](OP(=O)(O)OP(=O)(O)O)[C@H]2O)c(=O)[nH]1 [pppGpp]
- membrane targeting of FtsQ-RNCs (SRP/FtsY): completely blocked
- membrane targeting of LepB-RNCs (SRP/FtsY): completely blocked

From PMC8881573, “Inhibition of SRP-dependent protein secretion by the bacterial alarmone (p)ppGpp” (Nature Communications, 2022)
